Measurements: patent US5414006A, “Arylalkoxythiocoumarins, the preparation thereof and therapeutic compositions containing these” (BASF Aktiengesellschaft, priority 1992, dated 1995)

Legend:
[1] = target: T1, MAO A (Rattus norvegicus, UniProt P21396); test: MAO A inhibition in dilute rat brain homogenate; type: biochemical; settings: 14C-phenylethylamine or 14C-tryptamine 0.4 μmol/l, 37° C., 20 min
T1 construct: from tissue; host or cells: rat brain homogenate
T1 sequence (P21396 1-526): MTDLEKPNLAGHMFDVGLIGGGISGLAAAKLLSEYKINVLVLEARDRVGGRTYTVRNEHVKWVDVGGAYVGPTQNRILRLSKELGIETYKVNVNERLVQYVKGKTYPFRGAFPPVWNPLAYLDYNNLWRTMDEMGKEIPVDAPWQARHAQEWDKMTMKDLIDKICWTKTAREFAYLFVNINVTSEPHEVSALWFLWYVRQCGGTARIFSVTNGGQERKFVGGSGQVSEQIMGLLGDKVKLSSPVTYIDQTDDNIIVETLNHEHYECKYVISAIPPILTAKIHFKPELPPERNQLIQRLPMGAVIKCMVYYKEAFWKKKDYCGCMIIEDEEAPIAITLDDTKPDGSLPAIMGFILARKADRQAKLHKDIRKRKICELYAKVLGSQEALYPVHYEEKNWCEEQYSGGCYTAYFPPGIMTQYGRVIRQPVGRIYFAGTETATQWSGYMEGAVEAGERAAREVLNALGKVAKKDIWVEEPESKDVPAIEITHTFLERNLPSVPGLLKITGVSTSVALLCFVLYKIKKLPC
Procedure: (§1) The MAO-inhibiting activity of the compounds according to the invention can be determined using standard methods. Thus, monoamine oxidases A and B were determined in dilute rat brain homogenate to which test substances in various concentrations and ^14 C-phenylethylamine or ^14 C-tryptamine in a concentration of 0.4 μmol/l were added. This mixture was incubated at 37° C. for 20 min.
(§2) The reaction was then stopped with 0.1 normal HCl, and the products were determined after extraction in a toluene scintillator (PPO+POPOP in toluene). The blank was determined on a similar mixture with an incubation time of 0 min.
(§3) The median inhibitory concentration (IC50) was calculated by linear regression after logit-log transformation from the values for the inhibition at the various concentrations relative to the control.

[2] = target: T2, MAO B (Rattus norvegicus, UniProt P19643); test: MAO B inhibition in dilute rat brain homogenate; type: biochemical; settings: 20 min; for IC50: dilute rat brain homogenate, 14C-phenylethylamine or 14C-tryptamine 0.4 μmol/l, 37° C.; for MAO A / MAO B IC50 ratio: selectivity for MAO B over MAO A, rat brain homogenate
T2 construct: from tissue; host or cells: rat brain homogenate
T2 sequence (P19643 1-520): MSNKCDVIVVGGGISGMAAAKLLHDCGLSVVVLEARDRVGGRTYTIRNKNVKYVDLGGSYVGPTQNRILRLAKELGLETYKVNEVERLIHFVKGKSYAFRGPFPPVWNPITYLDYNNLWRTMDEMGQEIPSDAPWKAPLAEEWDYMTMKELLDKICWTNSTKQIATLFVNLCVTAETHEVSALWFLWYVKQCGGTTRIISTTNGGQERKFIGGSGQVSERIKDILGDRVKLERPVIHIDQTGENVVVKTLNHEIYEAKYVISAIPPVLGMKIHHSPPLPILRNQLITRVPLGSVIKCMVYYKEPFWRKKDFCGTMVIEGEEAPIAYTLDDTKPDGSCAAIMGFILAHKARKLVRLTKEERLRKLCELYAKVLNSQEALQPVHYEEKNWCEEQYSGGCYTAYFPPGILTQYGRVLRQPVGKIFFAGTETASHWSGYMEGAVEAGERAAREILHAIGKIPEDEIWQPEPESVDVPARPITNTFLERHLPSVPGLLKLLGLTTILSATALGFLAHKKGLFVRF
Procedure: as §1, §2, §3

SMILES | IC50 [1] [nM] | IC50 [2] [nM] | MAO A / MAO B IC50 ratio [2]
Cc1nnc(COc2ccc3c(C)c(C)c(=S)oc3c2)o1 [Example 3, 3,4-Dimethyl-7-(2-methyl-1,3,4-oxadiazol-5-ylmethoxy)-2-thiocoumarin] | > 10000 | 10 | > 1000
CCCc1nnc(COc2ccc3c(C)c(C)c(=S)oc3c2)s1 [Example 4, 3,4-Dimethyl-7-(2-n-propyl-1,3,4-thiadiazol-5-ylmethoxy)-2-thiocoumarin] | ≥ 10000 | 2 | > 5000
Cc1c(C)c2ccc(OCc3nnc(C(C)C)s3)cc2oc1=S [Example 1, 3,4-Dimethyl-7-(2-isopropyl-1,3,4-thiadiazol-5-ylmethoxy)-2-thiocoumarin] | > 10000 | 1 | > 10,000
Cc1c(C)c2ccc(OCc3csc(C(C)C)n3)cc2oc1=S [Example 2, 3,4-Dimethyl-7-(2-isopropylthiazol-4-ylmethoxy)-2-thiocoumarin] | > 10000 | 3 | > 3333

Now from value to molecule:

IC50 [1] [nM] | IC50 [2] [nM] | MAO A / MAO B IC50 ratio [2] | SMILES
≥ 10000 | 3 | > 3333 | CC(C)c1ccc(COc2ccc3ccc(=S)oc3c2)cc1 [Example 12, 7-(4-Isopropylbenzyloxy)-2-thiocoumarin]
> 10000 | 3 | > 3333 | Cc1c(C)c2cc(Cl)c(OCc3nnc(C(C)C)s3)cc2oc1=S [Example 13, 6-Chloro-3,4-dimethyl-7-(2-isopropyl-1,3,4-thiadiazol-5-ylmethoxy)-2-thiocoumarin]
> 10000 | 6 | > 1667 | Cc1c(C)c2cc(Cl)c(OCc3nnc(C4CC4)s3)cc2oc1=S [Example 14, 6-Chloro-3,4-dimethyl-7-(2-cyclopropyl-1,3,4-thiadiazol-5-ylmethoxy)-2-thiocoumarin]
